Here are results for one compound from patent US20100016319A1, “ARYLMETHYLENE UREA DERIVATIVE AND USE THEREOF” (TORAY INDUSTRIES, INC. a corporation of Japan, priority 2005, published 2010).

For assay [1], the system named is TNFα production in human whole blood. In words: Inhibitory activity on LPS-induced TNFα production in human whole blood. The assay is classed as cell-based. Conditions: LPS stimulation, 37° C., 5 hours. The procedure:
Inhibitory activities of the arylmethylene urea derivatives according to the present invention to the production of TNFα induced by stimulation with a lipopolysaccharide (LPS) were investigated using human whole blood.
After mixing each of the compounds of the present invention with human blood in a 96-well flat-bottom plate, the lipopolysaccharide (LPS) was added and the mixture was allowed to react at 37° C. for 5 hours. After the reaction, the resulting mixture was centrifuged at room temperature for 15 minutes, and supernatant of the resultant was recovered. For the quantification of TNFα in the supernatant, human cytokine kit (CIS biointernational) was used.

The subject of assay [2] is DSS-induced colitis. The assay can be described thus: Dextran sulfate sodium (DSS)-induced colitis model of mice, rectal bleeding score. The assay is classed as in vivo, BALB/c mice. Conditions: 30 mg/kg orally every day from Day 27 to Day 31. The procedure: (§1) Female BALB/c mice (Japan SLC) of 7 to 9 weeks old were allowed to freely drink 3 w/v % dextran sulfate sodium (DSS) for 5 to 7 days, and then to freely drink sterilized distilled water for 5 days. This procedure was repeated 3 times to induce colitis. The uninduced (background) group was allowed to freely drink sterilized distilled water. The compound described in Example 2 was orally administered to the mice at a dose of 30 mg/kg every day from Day 27 to Day 31 counted from the start of the test, and rectal bleeding was scored (0: occult blood-negative, 2: occult blood-positive, 4: apparent bleeding) by using the method described by Murthy et al (see, for example, Dig Dis Sci., 38, 1722 (1993)).
On the other hand, the same test as in Example 452 was repeated except that 1-(4-(pyridin-4-yloxy)benzyl)-3-(3-t-butylisoxazol-5-yl)urea (the structural formula thereof is shown below) which is a compound included in WO 04/037789 was used in place of the compound of Example 2. The score on Day 32 (the last day of the test) of the colitis-uninduced group was 0, while the score of the colitis-induced group rose to 1.2±0.2.
as §1, with “Example 10” for “Example 2”
On the other hand, the same test as in Example 453 was repeated except that 1-(4-(pyridin-4-yloxy)benzyl)-3-([…])urea (the structural formula thereof is shown below) which is a compound included in WO 04/037789 was used in place of the compound of Example 10. The score on Day 32 (the last day of the test) of the colitis-uninduced group was 0, while the score of the colitis-induced group rose to 1.2±0.2.

Assay [3] has as its system rhythmic bladder contractions. The assay can be described thus: Rhythmic bladder contractions model in anesthetized rats. The note with it: i.v., from a dose of 3 mg/kg; 10 minutes before and after administration; FIG. 1. The class given is in vivo, SD rats. An excerpt:
Using anesthetized rat rhythmic bladder contractions model, the inhibitory effect of the arylmethylene urea derivatives of the present invention on the detrusor hyperreflexia was investigated.
Female SD rats were anesthetized with an intraperitoneal injection of urethane (1.0 g/kg). A polyethylene tube was inserted from external urethral orifice into the bladder and the tube was fixed by ligating. The other end of the tube was equipped with a three-necked cock, and one of the necks thereof was connected to a pressure transducer for the measurement of intravesical pressure and the other neck was connected to a syringe for the infusion of physiological saline into the bladder. Thirty minutes after the surgery was completed, physiological saline in appropriate volume was infused via the tube in order to induce rhythmic bladder contractions. After stable rhythmic bladder contractions were obtained, a solution of each test compound or the solvent thereof was administered from a caudal vein in a volume of 0.5 mL/kg, and the effect on the frequency of bladder contractions was investigated. As the test compounds, the compounds of Examples 2 and 9 were used.
In each of the figures, the ordinate indicates the number of rhythmic bladder contractions for 10 minutes before and after administration of the compound.

Assay [4] has as its system cyclophosphamide-induced cystitis rats. In words: Cyclophosphamide-induced overactive bladder (cystitis) model in rats, cystometrogram. The assay is classed as in vivo, SD rats. The note with it: i.v., from a dose of 3 mg/kg; FIG. 3-A. As for the experimental part:
Using cyclophosphamide-induced cystitis rats known as an overactive bladder (pollakiuria) model based on the hyperactivity of afferent sensory C-fibers, the effect of compounds on the cystometrograms was investigated.
Female SD rats were pre-treated with cyclophosphamide (150 mg/kg) intraperitoneally one day before (18 hours before) the assay in order to induce cystitis. On the next day, each of rats was anesthetized with an intrapertoneral injection of urethane (1.0 g/kg). Next, a small incision was formed in the hypogastrium, and both ureters were ligated, followed by forming small incision in the ureters at the side of the kidney. Then, the bladder apex was incised and a polyethylene tube filled with physiological saline was inserted and indwelled. The other end of the tube was equipped with a three-necked cock, and one of the necks thereof was connected to a pressure transducer for the measurement of intravesical pressure and the other neck was connected to an infusion pomp in order to infuse physiological saline. Thirty minutes after the surgery was completed, physiological saline was continuously infused (3.6 mL/hr) in order to obtain a continuous cystometrograms. One minute before the infusion, a solution of each test compound or the solvent thereof was administered from a caudal vein in a volume of 0.5 mL/kg. […]

In assay [1], `Cc1ccc(-n2nc(C(C)(C)C)cc2NC(=O)NCc2ccccc2Oc2ccnc(N3CCOCC3)n2)cc1` [Example 2, 1-(2-(2-morpholinopyrimidin-4-yloxy)benzyl)-3-(3-t-butyl-1-p-tolyl-1H-pyrazol-5-yl)urea] showed an IC50 of 720 nM. In addition, in assay [2] (Day 32), the “amelioration of symptoms / improvement in the rectal bleeding score (in words)” value is “apparent amelioration of symptoms was observed”. The “rectal bleeding score on Day 32 (0: occult blood-negative, 2: occult blood-positive, 4: apparent bleeding)” value in assay [2] (female BALB/c mice, 3 w/v % DSS) came to 0.2±0.1. Also, the “effect on the number of rhythmic bladder contractions” value in assay [3] was “inhibited the rhythmic bladder contractions dose-dependently”. Moreover, the “effect on the increase in the frequency of urination (voiding episodes during 20 minutes)” value in assay [4] is “dose-dependently reduced the increase in the frequency of urination”.
